Here are results for three molecules from paper PMC11397024, “Strategic Fluorination to Achieve a Potent, Selective, Metabolically Stable, and Orally Bioavailable Inhibitor of CSNK2” (Molecules, 2024).

Like-named read-outs stand apart in the source and are kept apart here. Marks after values point to notes of the source that are not given here.

One series concerns SARS-CoV-2. The experiment in a line: SARS-CoV-2 assay in A549-ACE2 cells. The following applies: Severe acute respiratory syndrome coronavirus 2, triplicate, read-out: SARS-CoV-2 pIC50 (converted). The series is classed as cell-based.
Series [1] is described as follows: CellTiter-Glo cytotoxicity assay. The series is classed as cell-based, Human. The following applies: human, A549-ACE2 cells, 48 h, CellTiter-Glo, quadruplicate. The protocol:
A549-ACE2 cells were maintained in low-glucose DMEM (Gibco, Waltham, MA, USA) supplemented with 10% FBS, 1% NEAA, and 1% L-glutamine. No antibiotics were used. Cells were plated at 2000 cells/well in a 384-well plate (Costar, Glendale, AZ, USA) and incubated overnight (37 °C, 5% CO2) before adding the compound. Compounds were added in quadruplicate and incubated for 48 h. DMSO percentage was constant across all concentrations of the compound. Cell viability was measured using CellTiter-Glo2 (Promega, Madison, WI, USA) and the luminescence signal was read on a GloMax plate reader (Promega, Madison, WI, USA). Dose–response analysis was performed using GraphPad Prism.
In general terms: In ATP-based viability assays light output follows the ATP content of the culture.

Series [2] can be described thus: Liver microsomal stability, human. The note with it: pH 7.4, human liver microsomes, five time points over 1 h, read-out: HLM CLint. The class given is in vitro ADME. (In general: Microsomes from liver hold many membrane-bound enzymes, among them those of drug oxidation.)
A short description of series [3]: Hepatocyte stability, human. The series is classed as in vitro ADME. The following applies: cryopreserved hepatocytes, over 2 h. The protocol: Human cryopreserved hepatocytes were supplied by BioIVT (lot QZW, 10 pooled donors, Westbury, NY, USA). Mouse cryopreserved hepatocytes were supplied by BioIVT (lot ZPG, pooled male CD-1). Vials of cryopreserved hepatocytes were removed from storage and thawed in a 37 °C water bath with gentle shaking, and then the contents were poured into a 50 mL thawing medium conical tube. Vials were centrifuged at 100× g for 10 min at room temperature. The thawing medium was aspirated, and hepatocytes were resuspended with a serum-free incubation medium to yield ~1.5 × 10^6 cells/mL. Cell viability and density were counted using AO/PI fluorescence staining, and then cells were diluted with a serum-free incubation medium to a working cell density of 0.5 × 10^6 viable cells/mL. Aliquots of 198 μL of hepatocytes were dispensed into each well of a 96-well noncoated plate. The plate was placed in an incubator for approximately 10 min. […] Peak areas were determined from extracted ion chromatograms, and the slope value, k, was determined by linear regression of the natural logarithm of the remaining percentage of the parent drug vs. incubation time curve. The intrinsic clearance (CLint in μL/min/10^6 cells) was calculated using the relationship CLint = kV/N, where V is the incubation volume (0.2 mL) and N is the number of hepatocytes per well (0.1 × 10^6 cells). […]

The target of a further series is T1, CSNK2A1 (Homo sapiens, UniProt P68400).
T1 construct: expressed in transfected cells; host or cells: HEK293
Also on record: method as in PMID 37901516. The note with it: NanoBRET; cited from earlier work. On the technique in general: BRET reads energy transfer from a luciferase to a nearby fluorophore.

Another series has as its target T2, CSNK2A2 (Homo sapiens, UniProt P19784).
T2 construct: expressed in transfected cells; host or cells: HEK293
Also on record: method as in PMID 37901516. The following applies: NanoBRET; cited from earlier work.

Series [4] relates to mouse hepatitis virus (MHV). Also on record: method as in PMID 37901516. The note with it: cited from earlier work.
For series [5] the following is noted: cited from earlier work.
The conditions of series [6]: cited from earlier work. This is another data set of the same source.
The conditions of series [7]: cited from earlier work. This is another data set of the same source.
Series [8] concerns mouse hepatitis virus (MHV). The experiment in a line: MHV assay (MHV-nLuc in DBT cells). The following applies: read-out: IC50 for the assay; MHV-nLuc, DBT cells; positive control.
Protocol: DBT cells were cultured at 37 °C in Dulbecco’s modified Eagle medium (DMEM; Sigma-Aldrich, St. Louis, MO, USA) supplemented with 10% fetal bovine serum (FBS; Avantor, Randor, PA, USA) and penicillin and streptomycin (Sigma-Aldrich, St. Louis, MO, USA). DBT cells were plated in 96-well plates to be 80% confluent at the start of the assay. Test compounds or positive control EIDD-1931 were diluted to 15 μM in DMEM. Serial 4-fold dilutions were made in DMEM, providing a concentration range of 15–0.22 μM. Media were aspirated from the DBT cells, and 100 μL of the diluted test compounds was added to the cells for 1 h at 37 °C. After 1 h, MHV-nLuc5 was added at an MOI of 0.1 in 50 μL of DMEM so that the final concentration of the first dilution of the compound was 10 μM (T = 0). After 10 h, the media were aspirated, and the cells were washed with PBS and lysed with passive lysis 5X buffer (Promega, Madison, WI, USA) for 20 min at room temperature. Relative light units (RLUs) were measured using a luminometer (Promega; GloMax, Madison, WI, USA). Triplicate data were analyzed in GraphPad Prism version 9.4.1 for macOS to generate IC50 values.
For series [9] the following is noted: cited from earlier work. The source holds these as a separate data set.

T1 sequence (P68400 whole entry): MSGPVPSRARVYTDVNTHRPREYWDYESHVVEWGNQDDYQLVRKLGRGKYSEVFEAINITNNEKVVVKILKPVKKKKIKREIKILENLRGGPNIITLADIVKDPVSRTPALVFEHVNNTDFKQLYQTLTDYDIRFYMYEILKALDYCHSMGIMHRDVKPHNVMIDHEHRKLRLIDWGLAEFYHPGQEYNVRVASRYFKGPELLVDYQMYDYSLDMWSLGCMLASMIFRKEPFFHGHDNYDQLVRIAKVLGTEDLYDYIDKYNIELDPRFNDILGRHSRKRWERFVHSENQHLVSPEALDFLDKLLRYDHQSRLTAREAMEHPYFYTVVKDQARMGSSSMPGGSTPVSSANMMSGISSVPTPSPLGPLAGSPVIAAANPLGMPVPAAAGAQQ
T2 sequence (P19784 whole entry): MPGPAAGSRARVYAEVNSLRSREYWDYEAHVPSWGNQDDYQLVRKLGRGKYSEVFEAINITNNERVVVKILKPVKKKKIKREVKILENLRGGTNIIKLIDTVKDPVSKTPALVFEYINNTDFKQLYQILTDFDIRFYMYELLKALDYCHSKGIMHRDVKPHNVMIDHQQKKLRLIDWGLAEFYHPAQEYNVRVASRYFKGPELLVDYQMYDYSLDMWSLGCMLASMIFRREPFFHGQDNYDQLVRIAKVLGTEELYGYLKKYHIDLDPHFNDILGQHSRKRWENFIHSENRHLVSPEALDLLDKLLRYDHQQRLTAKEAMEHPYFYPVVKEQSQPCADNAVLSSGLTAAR

Consider `CCC(=O)Nc1cc(Nc2cc(NC3CC3)n3ncc(C#N)c3n2)ccc1N1CCC[C@H](NC)C1` [Compound 1], for which, in the series on SARS-CoV-2, the IC50 is 631 nM. In [1] (0.1 μM), this molecule had a viability at 48 h, 0.1 µM of 100%. Besides, in series [1] (1.0 μM), the viability at 48 h, 1 µM turned out to be 79%. Besides, the CLint scaled at 5 μM in [2] stood at 12.5 mL/min/kg. Also, the CLint scaled at 1 μM in series [3] came to 4.1 mL/min/kg. Moreover, at CSNK2A1, the “CSNK2A1 pIC50” value is recorded as 7.6 ^f. Moreover, at CSNK2A2, the “CSNK2A2 pIC50” value was 7.7 ^f. Also, in series [4], the “MHV pIC50” value is given as 6.9 ^f. In addition, the “Kinetic Solubility” value in series [5] (pH 7.4) is reported as 71 ^f μg/mL. In [6] (mouse plasma, 10 mg/kg i.p.), the AUClast is 7.01 µM·h, the Cmax is 4.71 µM and the time to peak (Tmax) is 0.25 h. For the same molecule, the t1/2 in [6] (mouse, in vivo, ip, 10 mg/kg) is given as 1.2 h. In series [6] (mouse, in vivo, iv, 1 mg/kg), the AUClast was 1.4 µM·h, the distribution volume (Vdss) was 2.6 L/kg and the t1/2 is reported as 1.3 h. In addition, the “Mouse Hepatocytes CLint” value in series [7] is on record as 143 mL/min/kg.
As for `O=c1nc(NO)ccn1[C@@H]1O[C@H](CO)[C@@H](O)[C@H]1O` [EIDD-1931, reference compound], the IC50 in [8] was 1200 nM.
Consider `CCC(=O)Nc1cc(Nc2cc(NC3CC3)n3ncc(C#N)c3n2)ccc1C` [SGC-CK2-1, reference compound], for which the “stability in mouse liver microsomes” value in series [9] was “poor stability in mouse liver microsomes”. In addition, the solubility result in series [5] was “poor solubility”.

The term viability denotes the share of living cells, or the viability signal relative to a control. What is called Cmax is the peak of the concentration-time curve. In general, Tmax refers to the time from dosing to the highest level. In general, Vdss refers to the apparent volume that relates the amount in the body to the concentration in plasma or blood.
